Measurements reported in patent US6924297B2, “Naphathalene derivatives which bind to the EP4 receptor” (SmithKline Beecham Corporation, priority 2000, dated 2005).

Each molecule was assayed against T1, human EP4 receptor (Homo sapiens, UniProt P35408) (assay: Human EP4 Scintillation Proximity Assay (radioligand binding)). Conditions: membranes of CHO cells expressing human EP4 receptor; [3H]-prostaglandin E2 radioligand; pKi from IC50 by Cheng-Prusoff; read-out: pKI at EP4 receptors (converted).
T1 construct: expressed in transfected cells; host or cells: Chinese Hamster Ovary (CHO) cells infected with recombinant Semliki Forest Virus (SFV-1) particles; membranes prepared from these cells
T1 sequence (P35408 whole entry): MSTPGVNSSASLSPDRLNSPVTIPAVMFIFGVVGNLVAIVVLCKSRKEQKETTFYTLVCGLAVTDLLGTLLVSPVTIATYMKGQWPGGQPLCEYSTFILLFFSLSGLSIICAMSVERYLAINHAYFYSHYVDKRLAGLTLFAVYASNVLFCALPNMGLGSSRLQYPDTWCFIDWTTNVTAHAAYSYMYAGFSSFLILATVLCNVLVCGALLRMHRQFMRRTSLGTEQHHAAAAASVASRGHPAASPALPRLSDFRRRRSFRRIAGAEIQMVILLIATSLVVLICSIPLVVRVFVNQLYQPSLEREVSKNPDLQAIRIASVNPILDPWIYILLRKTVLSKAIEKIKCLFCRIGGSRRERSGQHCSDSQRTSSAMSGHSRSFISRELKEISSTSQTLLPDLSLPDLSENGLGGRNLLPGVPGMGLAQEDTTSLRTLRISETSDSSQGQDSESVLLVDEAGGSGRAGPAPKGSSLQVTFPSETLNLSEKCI
Procedure: Quantification of radioligand binding by scintillation proximity assay (SPA) is a long-established principle. Briefly, the affinity of compounds for a receptor is assessed by the specific competition between known quantities of radiolabelled ligand and compound for that receptor. Increasing concentrations of compound reduce the amount of radiolabel that binds to the receptor. This gives rise to a diminishing scintillation signal from SPA beads coated with membranes that bear the receptor. The signal may be detected with a suitable scintillation counter and the data generated may be analysed with suitable curve-fitting software.
The human EP4 SPA assay (hereafter referred to as ‘the assay’) utilises membranes prepared from Chinese Hamster Ovary (CHO cells) infected with Semliki Forest Virus (SFV). Genetically engineered SFV-1 viral particles containing the genetic sequence of the human EP4 receptor were used to infect CHO cells resulting in expression of the receptor protein in cellular membranes. Cells washed free of media are homogenised in a pH-buffered medium containing peptidase inhibitors. A suitable buffer is of the following composition: 50 mM HEPES, 1 mM EDTA, 25 μg/ml bacitracin, 100 μM leupeptin, 1 mM PMSF, 2 μM Pepstatin A, pH adjusted to 7.4 with KOH. Following removal of cell debris by a low-speed centrifugation, a pellet of membranes is prepared by a high-speed (48000 g) centrifugation of the resulting supernatant. Membrane suspensions such as that described may be stored at −80° C. until used.
For assay, membranes expressing human EP4 receptors are diluted in a pH-buffered medium and mixed with SPA beads coated with a suitable substance to facilitate the adhesion of membranes to the beads. The concentrations of membrane protein and SPA beads chosen should result in SPA binding signal of at least 300 corrected counts per minute (CCPM) when tritiated radioligand at a concentration close to its Kd (affinity value) is combined with the mixture. Non-specific binding (nsb) may be determined by competition between the radiolabelled ligand and a saturating concentration of unlabelled ligand. In order to quantify the affinity of EP4 receptor ligands, compounds are diluted in a stepwise manner across the wells of a 96-well plate. Radioligand, compound, and unlabelled ligand are then added to a 96-well plate suitable for the measurement of SPA binding signals prior to the addition of bead/membrane mixture to initiate the binding reaction. Equilibrium may be achieved by incubation at room temperature for 120 minutes prior to scintillation counting. The data so generated may be analysed by means of a computerised curve-fitting routine in order to quantify the concentration of compound that displaces 50% of the specific radioligand binding (IC50). The affinity (pKi) of the compound may be calculated from the IC50 by application of the Cheng-Prusoff correction. Suitable reagents and protocols are: reaction buffer containing 50 mM HEPES, 10 mM MgCl2, pH adjusted to 7.4 with KOH; SPA beads coated with wheatgerm agglutinin; 1.25 nM [^3H]-prostaglandin E2 as radioligand; 10 μM prostaglandin E2 as unlabelled ligand; a three-fold dilution series of compound starting at 10 μM and ending at 0.3 nM is adequate.

Ki, ≤ 100 nM:
CCOc1c2c(c(OCC)c3ccccc13)C(=O)N(c1ccc(CS(=O)(=O)NC(=O)Cc3cccc(OCc4ccccc4)c3)cc1)C2 [Example 42]
CCOc1c2c(c(OCC)c3ccccc13)C(=O)N(c1ccc(CS(=O)(=O)NC(=O)Cc3cc(C)ccc3C)cc1)C2 [Example 39]
CCOc1c2c(c(OCC)c3ccccc13)C(=O)N(c1ccc(CS(=O)(=O)NC(=O)Cc3ccc(CC)cc3)cc1)C2 [Example 28]
CCOc1c2c(c(OCC)c3ccccc13)C(=O)N(c1ccc(CS(=O)(=O)NC(=O)Cc3ccc(OC)cc3)cc1)C2=O [Example 2]
CCOc1c2c(c(OCC)c3ccccc13)C(=O)N(c1ccc(CS(=O)(=O)NC(=O)Cc3cc(OC)ccc3OC)cc1)C2 [Example 36]
CCOc1c2c(c(OCC)c3ccccc13)C(=O)N(c1ccc(CS(=O)(=O)NC(=O)Cc3cccc(OC)c3)cc1)C2 [Example 43, 1-[4-(4,9-diethoxy-1-oxo-1,3-dihydro-2H-benzo[f]isoindol-2-yl)phenyl]-N-[(3-methoxyphenyl)acetyl]methanesulfonamide]
CCOc1c2c(c(OCC)c3ccccc13)C(=O)N(c1ccc(CS(=O)(=O)NC(=O)C(CC)c3ccccc3)cc1)C2=O (stereo not drawn) [Example 64]
CCOc1c2c(c(OCC)c3ccccc13)C(=O)N(c1ccc(CS(=O)(=O)NC(=O)Cc3ccc4c(c3)OCO4)cc1)C2 [Example 84]
CCOc1c2c(c(OCC)c3ccccc13)C(=O)N(c1ccc(CS(=O)(=O)NC(=O)C(Cl)c3ccccc3)cc1)C2=O (stereo not drawn) [Example 75]
CCOc1c2c(c(OCC)c3ccccc13)C(=O)N(c1ccc(CS(=O)(=O)NC(=O)Cc3ccc(F)cc3)cc1)C2=O [Example 62]
CCOc1c2c(c(OCC)c3ccccc13)C(=O)N(c1ccc(CS(=O)(=O)NC(=O)Cc3cccc(F)c3)cc1)C2=O [Example 65]
CCOc1c2c(c(OCC)c3ccccc13)C(=O)N(c1ccc(CS(=O)(=O)NC(=O)Cc3ccccc3F)cc1)C2 [Example 32]
